Among the data in ChEMBL document CHEMBL3243937, “Adriamycin analogues. 2. Synthesis of 13-deoxyanthracyclines” (1978) are T/C, IC50 and ΔTm values, retold here.

In assay [1] the test system is P388. The assay can be described thus: Antitumor activity against mouse P388 cells allografted in mouse assessed as increase in survival time at 5.3 mg/kg, ip qd administered starting from day 1 to day 9 post challenge relative to control. It is filed as functional. Particulars: route intraperitoneal.
Assay [2] deals with P388. The assay can be described thus: Antitumor activity against mouse P388 cells allografted in mouse assessed as increase in survival time at 3.5 mg/kg, ip qd administered starting from day 1 to day 9 post challenge relative to control. Particulars: route intraperitoneal. It is filed as functional.
Assay [3] has as its system P388. The experiment in a line: Antitumor activity against mouse P388 cells allografted in mouse assessed as increase in survival time at 8 mg/kg, ip qd administered starting from day 1 to day 9 post challenge relative to control. It is filed as functional. Particulars: route intraperitoneal.
The test system of assay [4] is L1210. The assay can be described thus: Inhibition of RNA synthesis in mouse L1210 cells compound preincubated for 3 hrs followed by [3H]uridine addition measured after 1 hr by scintillation counting. It is filed as functional.
Assay [5] has as its system Calf thymus DNA. The assay can be described thus: Binding affinity to calf thymus DNA by spectral analysis. Particulars: Bos taurus. It is filed as nucleic-acid assay.
Assay [6] relates to P388. The experiment in a line: Antitumor activity against mouse P388 cells allografted in mouse assessed as increase in survival time at 4 mg/kg, ip qd administered starting from day 1 to day 9 post challenge relative to control. It is filed as functional. Particulars: route intraperitoneal.
In assay [7] the test system is L1210. The assay can be described thus: Inhibition of DNA synthesis in mouse L1210 cells compound preincubated for 3 hrs followed by [3H]thymidine addition measured after 1 hr by scintillation counting. It is filed as functional.
Assay [8] relates to P388. The experiment in a line: Antitumor activity against mouse P388 cells allografted in mouse assessed as increase in survival time at 12 mg/kg, ip qd administered starting from day 1 to day 9 post challenge relative to control. It is filed as functional. Particulars: route intraperitoneal.
Assay [9] concerns P388. The experiment in a line: Antitumor activity against mouse P388 cells allografted in mouse assessed as increase in survival time at 1.5 mg/kg, ip qd administered starting from day 1 to day 9 post challenge relative to control. Particulars: route intraperitoneal. It is filed as functional.
For assay [10], the system named is P388. The assay can be described thus: Antitumor activity against mouse P388 cells allografted in mouse assessed as increase in survival time at 0.39 mg/kg, ip qd administered starting from day 1 to day 9 post challenge relative to control. It is filed as functional. Particulars: route intraperitoneal.
Assay [11] relates to P388. The experiment in a line: Antitumor activity against mouse P388 cells allografted in mouse assessed as increase in survival time at 1.56 mg/kg, ip qd administered starting from day 1 to day 9 post challenge relative to control. It is filed as functional. Particulars: route intraperitoneal.
Assay [12] concerns P388. The experiment in a line: Antitumor activity against mouse P388 cells allografted in mouse assessed as increase in survival time at 3.13 mg/kg, ip qd administered starting from day 1 to day 9 post challenge relative to control. It is filed as functional. Particulars: route intraperitoneal.
Assay [13] concerns P388. The experiment in a line: Antitumor activity against mouse P388 cells allografted in mouse assessed as increase in survival time at 0.78 mg/kg, ip qd administered starting from day 1 to day 9 post challenge relative to control. It is filed as functional. Particulars: route intraperitoneal.
For assay [14], the system named is P388. The experiment in a line: Antitumor activity against mouse P388 cells allografted in mouse assessed as increase in survival time at 6.25 mg/kg, ip qd administered starting from day 1 to day 9 post challenge relative to control. It is filed as functional. Particulars: route intraperitoneal.
Assay [15] deals with P388. The assay can be described thus: Antitumor activity against mouse P388 cells allografted in mouse assessed as increase in survival time at 8 mg/kg, ip qd administered starting on day 5,9 and 13 post challenge relative to control. It is filed as functional. Particulars: route intraperitoneal.
In assay [16] the test system is P388. The assay can be described thus: Antitumor activity against mouse P388 cells allografted in mouse assessed as increase in survival time at 16 mg/kg, ip qd administered starting on day 5,9 and 13 post challenge relative to control. It is filed as functional. Particulars: route intraperitoneal.
Assay [17] concerns P388. The assay can be described thus: Antitumor activity against mouse P388 cells allografted in mouse assessed as increase in survival time at 0.20 mg/kg, ip qd administered starting from day 1 to day 9 post challenge relative to control. It is filed as functional. Particulars: dose 0.2 mg/kg; route intraperitoneal.
The subject of assay [18] is P388. The experiment in a line: Antitumor activity against mouse P388 cells allografted in mouse assessed as increase in survival time at 4 mg/kg, ip qd administered starting on day 5,9 and 13 post challenge relative to control. It is filed as functional. Particulars: route intraperitoneal.
The test system of assay [19] is P388. The assay can be described thus: Antitumor activity against mouse P388 cells allografted in mouse assessed as increase in survival time at 1 mg/kg, ip qd administered starting on day 5,9 and 13 post challenge relative to control. It is filed as functional. Particulars: route intraperitoneal.
For assay [20], the system named is P388. The assay can be described thus: Antitumor activity against mouse P388 cells allografted in mouse assessed as increase in survival time at 2 mg/kg, ip qd administered starting on day 5,9 and 13 post challenge relative to control. Particulars: route intraperitoneal. It is filed as functional.

`CC[C@@]1(O)C[C@H](O[C@H]2C[C@H](N)[C@H](O)[C@H](C)O2)c2c(O)c3c(c(O)c2[C@H]1C(=O)OC)C(=O)c1cccc(O)c1C3=O.Cl`: the T/C (commonly the result in the treated group divided by that in the control group, in per cent) in assay [1] worked out at 139%; in [2], 130%; in assay [3], 140%; in assay [6], 132%; in assay [8] it was 141%; in assay [9], 127%. For the same molecule, the IC50 (usually the midpoint of a concentration-inhibition curve) was 2600 nM in assay [4] and 5600 nM in [7]. Further, the ΔTm – broadly, the change in melting temperature against a reference sample – in assay [5] came out at 7.6 °C.
Regarding `CC[C@]1(O)Cc2c(O)c3c(c(O)c2[C@@H](O[C@H]2C[C@H](N)[C@H](O)[C@H](C)O2)C1)C(=O)c1c(OC)cccc1C3=O`, the T/C was found to be 140% in assay [10], 160% in assay [11], 160% in [12] and 134% in assay [13]. Moreover, the IC50 was determined as 840 nM in assay [4] and 1300 nM in assay [7]. The ΔTm in [5] is 50 °C.
Turning to `COc1cccc2c1C(=O)c1c(O)c3c(c(O)c1C2=O)C[C@@](O)(CCO)C[C@@H]3O[C@H]1C[C@H](N)[C@H](O)[C@H](C)O1` [13-DEOXYDOXORUBICIN], the T/C in assay [10] turned out to be 140%; in assay [11], 156%; in assay [12], 164%; in assay [13], 161%; in assay [14] it was 153%. Besides, the figures for the IC50 in assay [4] and in assay [7] were 1100 nM and 1800 nM, respectively. In assay [5], the ΔTm turned out to be 6.15 °C.
Consider `COc1cccc2c1C(=O)c1c(O)c3c(c(O)c1C2=O)C[C@@](O)(C(C)=O)C[C@@H]3O[C@H]1C[C@H](N)[C@H](O)[C@H](C)O1` [DAUNORUBICIN], for which the T/C in assay [10] is listed as 153%; in [11], 148%; in assay [13], 167%; in assay [15] it was 134%; in assay [16] it was 127%; in assay [17] it was 144%. Also, the T/C in [18] was 131%. For the same molecule, the IC50 in assay [4] was 330 nM; in assay [7], 660 nM.
Turning to `COc1cccc2c1C(=O)c1c(O)c3c(c(O)c1C2=O)C[C@@](O)(C(=O)CO)C[C@@H]3O[C@H]1C[C@H](N)[C@H](O)[C@H](C)O1` [DOXORUBICIN], the T/C in assay [10] was determined as 174%; in [11] it was 176%; in assay [13] it was 197%; in assay [15], 157%; in assay [19], 133%; in [16] it was 130%. Also, the T/C is on record as 160% in [17], 133% in assay [20] and 142% in assay [18]. Further, the IC50 stood at 580 nM in assay [4] and 1500 nM in assay [7]. Further, in [5], the ΔTm was 13.4 °C.
